This is an account of results in patent US20060258729A1, “Antibacterial pyrazole carboxylic acid hydrazides” (priority 2002, published 2006).

Broadly, the inhibition is the percentage by which the read-out fell short of the control. A word on the IC50: it is the concentration at which inhibition is half-maximal.

One experiment concerns the target T1, B. subtilis pol IIIE (Bacillus subtilis, UniProt O34623).
T1 construct: made in house
The experiment is described as follows: DNA polymerase assay, B. subtilis pol IIIE. It counts as biochemical.

For another experiment, the target named is T2, E. coli pol IIIE (Escherichia coli, UniProt P10443).
T2 construct: purchased Enzyco, Denver, Colo
Nature of the experiment: DNA polymerase assay, E. coli pol IIIE. Type of experiment: biochemical. As to conditions: 80 μg/mL (190-260 μM) final concentration; all four dNTPs. Summed up: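 Incorporation of 3H label into activated calf thymus DNA (0.4 mg/mL) from 10 μM of all four dNTPs, 10 min at 30 °C in pH 7.5 Tris/magnesium acetate, compounds in 1% DMSO. Reactions started with 0.025–0.06 units recombinant polymerase, stopped with cold TCA; IC50 and percent inhibition relative to DMSO control.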

T1 sequence (O34623 whole entry): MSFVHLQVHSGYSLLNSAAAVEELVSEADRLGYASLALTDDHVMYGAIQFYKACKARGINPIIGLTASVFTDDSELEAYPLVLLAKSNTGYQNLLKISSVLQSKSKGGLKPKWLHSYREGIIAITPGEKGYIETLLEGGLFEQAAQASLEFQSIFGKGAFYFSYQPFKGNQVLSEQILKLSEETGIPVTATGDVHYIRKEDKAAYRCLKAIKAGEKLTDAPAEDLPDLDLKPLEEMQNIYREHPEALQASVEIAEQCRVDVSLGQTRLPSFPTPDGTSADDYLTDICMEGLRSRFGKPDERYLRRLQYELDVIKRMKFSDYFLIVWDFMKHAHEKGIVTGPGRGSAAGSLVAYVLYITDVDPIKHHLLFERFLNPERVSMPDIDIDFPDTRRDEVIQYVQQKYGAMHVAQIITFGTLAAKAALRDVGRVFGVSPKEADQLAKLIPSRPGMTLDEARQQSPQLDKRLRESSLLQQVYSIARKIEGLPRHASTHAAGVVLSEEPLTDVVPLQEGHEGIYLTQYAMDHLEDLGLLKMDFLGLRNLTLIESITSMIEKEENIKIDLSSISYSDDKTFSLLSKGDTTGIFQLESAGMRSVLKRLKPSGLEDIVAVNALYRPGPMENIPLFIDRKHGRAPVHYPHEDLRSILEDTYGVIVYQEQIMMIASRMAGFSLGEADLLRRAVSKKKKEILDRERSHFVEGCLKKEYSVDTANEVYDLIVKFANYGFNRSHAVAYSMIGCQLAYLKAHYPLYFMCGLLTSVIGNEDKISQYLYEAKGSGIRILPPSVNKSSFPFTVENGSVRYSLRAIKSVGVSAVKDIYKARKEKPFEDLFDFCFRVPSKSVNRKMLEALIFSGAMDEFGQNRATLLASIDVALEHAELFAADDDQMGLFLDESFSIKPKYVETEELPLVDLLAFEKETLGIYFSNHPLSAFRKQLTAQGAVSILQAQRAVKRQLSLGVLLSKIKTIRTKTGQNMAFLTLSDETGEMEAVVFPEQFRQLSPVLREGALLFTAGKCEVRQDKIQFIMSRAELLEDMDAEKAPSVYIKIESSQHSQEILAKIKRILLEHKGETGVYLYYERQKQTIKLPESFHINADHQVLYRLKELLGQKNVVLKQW
T2 sequence (P10443 whole entry): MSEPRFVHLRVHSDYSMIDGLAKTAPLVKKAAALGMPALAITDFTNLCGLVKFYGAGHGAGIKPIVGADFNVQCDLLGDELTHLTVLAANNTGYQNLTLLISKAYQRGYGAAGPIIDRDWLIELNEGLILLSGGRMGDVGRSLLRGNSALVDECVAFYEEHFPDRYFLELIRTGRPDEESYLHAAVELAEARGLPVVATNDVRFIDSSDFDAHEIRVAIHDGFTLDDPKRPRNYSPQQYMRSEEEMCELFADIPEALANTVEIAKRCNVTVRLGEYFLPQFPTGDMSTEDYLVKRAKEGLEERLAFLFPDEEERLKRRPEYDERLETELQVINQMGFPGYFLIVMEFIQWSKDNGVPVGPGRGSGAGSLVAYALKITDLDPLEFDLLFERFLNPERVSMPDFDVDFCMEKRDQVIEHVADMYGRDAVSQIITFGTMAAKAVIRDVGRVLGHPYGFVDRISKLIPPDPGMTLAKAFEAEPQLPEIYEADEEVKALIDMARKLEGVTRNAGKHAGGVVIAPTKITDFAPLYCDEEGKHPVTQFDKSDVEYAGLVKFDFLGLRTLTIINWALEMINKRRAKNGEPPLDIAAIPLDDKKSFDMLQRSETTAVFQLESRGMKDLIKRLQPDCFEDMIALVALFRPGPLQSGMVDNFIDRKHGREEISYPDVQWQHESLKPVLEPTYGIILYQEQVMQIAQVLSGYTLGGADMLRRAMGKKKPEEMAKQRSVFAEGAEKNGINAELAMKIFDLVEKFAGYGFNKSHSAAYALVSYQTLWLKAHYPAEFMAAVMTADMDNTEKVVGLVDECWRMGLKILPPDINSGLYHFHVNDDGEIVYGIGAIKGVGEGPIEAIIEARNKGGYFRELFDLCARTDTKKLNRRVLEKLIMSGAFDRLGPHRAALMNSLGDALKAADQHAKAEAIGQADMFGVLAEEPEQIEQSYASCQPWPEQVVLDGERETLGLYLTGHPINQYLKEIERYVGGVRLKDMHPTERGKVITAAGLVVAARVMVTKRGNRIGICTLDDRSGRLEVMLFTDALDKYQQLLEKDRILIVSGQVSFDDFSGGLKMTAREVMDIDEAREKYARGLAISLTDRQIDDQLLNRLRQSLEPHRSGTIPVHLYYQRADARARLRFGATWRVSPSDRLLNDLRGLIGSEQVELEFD

Turning to `COc1ccc(-c2cc(C(=O)NN=Cc3cc(OC)c(OC)c(OC)c3)[nH]n2)cc1` [Compound 17], the inhibition at 80 µg/mL at B. subtilis pol IIIE (80 μg/mL (190-260 μM) final concentration, all four dNTPs, read-out: Percent Enzymatic Inhibition B. subtilis pol IIIE) was more than 20%. Besides, at B. subtilis pol IIIE (B. subtilis Pol IIIE IC50, 4 dNTPs, in the presence of all four dNTP substrates), the 50% inhibitory concentration (IC50) was more than 780 µM. Further, the “Percent Enzymatic Inhibition E. coli pol IIIE” value on E. coli pol IIIE was “Inactive”.
